Measured values taken from US11040052B2, “Methods and pharmaceutical compositions for modulating autophagy in a subject in need thereof” (INSERM (INSTITUT NATIONAL DE LA SANTE ET DE LA RECHERCHE …, priority 2013, dated 2021).
“Also recorded” adds a separate entry of the source.

Experiments:
[1] = test system: starvation-induced autophagy in mice tissues; assay: Starved mice: tissue AcCoA, protein acetylation and starvation-induced autophagy; assay type: in vivo
Protocol: C57BL/6 mice (Charles River Laboratory, […], France) were bred and maintained according to both the FELASA and the Animal Experimental Ethics Committee Guidelines (Val de Marne, France). Mice were housed in a temperature-controlled environment with 12 h light/dark cycles and received food and water ad libitum. For HC-related experiments, mice were injected intraperitoneally with a single 100 mg/kg dose and 6 h later were sacrificed and tissues were immediately frozen in liquid nitrogen. […] Tissue extracts were then centrifuged at 12,000 g at 4° C. and supernatants were collected. Protein concentration in the supernatants was evaluated by the bicinchoninic acid technique (BCA protein assay kit, Pierce Biotechnology, Rockford, Ill.). For hydroxycitrate-related weight-loss experiments, autophagy-deficient Atg4b^-/- mice were used. Atg4b^-/- mice have been previously described (Mariño et al., 2010). For HC-, spermidine-, and resveratrol-related experiments (tumour growth) mice were intraperitoneally injected with respectively 100 mg/kg, 50 mg/kg and 100 mg/kg doses at day 8 and day 9. At day 9, mice were intraperitoneally injected with 2 mg/kg single dose of Mitoxanthrone. For starvation related experiment (tumour growth) mice were treated as previously described (Fabrizio et. al., 2010). To avoid post-mortem autophagy induction, dead mice were immediately perfused with 4% paraformaldehyde (w:v in PBS, pH 7.4). Tissues were then harvested and further fixed with the same solution for at least 4 h, followed by treatment with 15% sucrose (w:v in PBS) for 4 h and with 30% sucrose (w:v in PBS) overnight. Tissue samples were embedded in Tissue-Tek OCT compound (Sakura Finetechnical Co. Ltd., Tokyo, Japan) and stored at -70° C. […] In each organ, the number of GFP-LC3 dots was counted in five independent visual fields from at least five mice using a TCS SP2 confocal fluorescence microscope (Leica Microsystems GmbH). […]

[2] = test system: intracellular amino acid levels; assay: Intracellular amino acid levels by mass spectrometry; assay type: cell-based; details: starved cells
Protocol: Profiling of intracellular metabolites was performed on a RRLC 1260 system (Agilent Technologies) coupled to a QTOF 6520 (Agilent) equipped with an electrospray source operating in positive ion and full scan mode from 100 to 1000 Da. The gas temperature was set at 350° C. with a gas flow of 10 L·min^1. The capillary voltage was set at 4.0 kV, and the fragmentor at 150 V. Two reference masses were used to maintain the mass accuracy during analysis: 121.050873 (C5H4N4) and 922.009798 (C18H18O6N3P3F24). Five μL of sample were injected on a 150 mm×2.1 mm 3.5 μm SB Aq column (Agilent) with a pre-column 30 mm×2.1 mm 3.5 μm Eclipse plus (Agilent). The gradient mobile phase consisted of water with 10 mmol/L of ammonium acetate and 0.01% of acetic acid (A) and acetonitrile (B). Initial composition of mobile phase was 2% of B, followed by an increase to 95% of B in 10 min. The flow rate was set to 0.3 mL·min^−1.

[3] = test system: MPA/DMBA induced mammary tumors; assay: MPA/DMBA induced mammary tumor; assay type: in vivo, mice
Protocol: Six-week-old female Balb/c mice underwent surgical implantation of slow-release MPA (Medroxyprogesterone Acetate) pellets (50 mg, 90-day release; Innovative Research of America) subcutaneously on the right flank. 200 uL of 5 mg/mL DMBA (Dimethylbenzantracene)
(Sigma Aldrich) dissolved in Corn Oil was administered by oral gavage six times during 8 weeks. Tumor formation was monitored by palpation. When tumors became palpable, mice were assigned to following groups of treatment: PBS, HCA, MTX, MTX plus HCA and the MTX plus HCA upon CD4/CD8 lymphocytes depletion. Combinatorial groups were treated as previously described, whereas for CD4/CD8 depletion, mice were intraperitoneally administrated with 500 μg of anti CD4 and CD8 antibodies the day before the onset of the treatment.

[4] = test system: CT26 derived tumors expressing pmeLUC; assay: Real time in vivo imaging of ATP release; parameters: species or system mice; details: autophagy competent tumors, 48 hours post chemotherapy
Protocol: BALB/c mice were subcutaneously inoculated with 3×10^5 SCR or ATG5^KD CT26 clones stably expressing pmeLUC probe, and tumor growth was monitored every 2 days. When tumor became palpable (about 8 days after injection), mice were divided in four experimental groups. The first one was intraperitoneally injected with 200 µl PBS and after 48 hs from the first injection, 200 µl of PBS was injected again (control group). The second one was injected the first time with 100 mg/kg hydroxycitrate in 200 µl of PBS and 48 hs later again 100 mg/kg hydroxycitrate in 200 µl of PBS. The third one was intraperitoneally injected with 100 mg/kg hydroxycitrate in 200 µl of PBS and 48 hs later with 100 mg/kg hydroxycitrate in 200 µl of PBS and 5.17 mg/Kg MTX in 200 µl di PBS. The last group were injected the first time with 200 µl of PBS and 48 hs later with 5.17 mg/Kg MTX in 200 µl di PBS. Thereafter, mice were anesthetized and imaged with Xenogen—IVIS® Lumina II (Caliper, Hopkinton, Mass., USA). D-luciferin (150 mg/kg) was intraperitoneally administered to mice 15 minutes before acquisitions, which were performed immediately before and after 48 hrs from compound injections. The regions of interest were identified around tumor sites and in vivo luminescence was identified as photons/s using the Living ImageH software (Caliper).

SMILES | AcCoA levels in mice tissues after 24 h starvation ([1]; intraperitoneal injection, starved mice, vs vehicle) | cytoplasmic protein acetylation in tissues of starved mice ([1]; parenteral administration) | starvation-induced autophagy in vivo ([1]; starved mice, LC3 lipidation and GFP-LC3 in heart and muscle) | intracellular amino acid levels [2] | survival, combined with MTX ([3]; Kaplan-Meier) | mammary tumor growth and survival, combined with MTX, T cell depleted ([3]; depletion of CD4 and CD8 T lymphocytes) | mammary tumor growth, combined with MTX ([3]; mice capable of T-cell dependent immune response) | mammary tumor growth, monotherapy ([3]; mouse, in vivo) | extracellular ATP release in vivo, combined with MTX [4]
COC(=O)CCC(=O)C(=O)OC [DMKG, dimethyl-α-ketoglutarate] | increased cardiac AcCoA levels; also recorded: avoided the depletion of AcCoA | avoided the depletion of AcCoA, the deacetylation of cytosolic proteins; also recorded: avoided the depletion of AcCoA and the deacetylation of cytoplasmic proteins | inhibited starvation-induced autophagy in vivo; also recorded: efficiently reduced autophagy in vivo | failed to enhance intracellular amino acid levels | – | – | – | – | –
O=C(O)CC(O)(C(=O)O)C(O)C(=O)O (stereo not shown) [HC, hydroxycitrate] | – | – | – | – | significantly increased survival | Beneficial effect of combinatorial treatment is lost | significantly diminish tumor growth; also recorded: unless they were combined | had little effect | significantly enhances ATP release; also recorded: higher level of extracellular ATP accumulation
CC(C)CC(=O)C(=O)O [KIC, ketoisocaproic acid] | – | – | – | barely increased intracellular leucine levels | – | – | – | – | –
